Results taken from ChEMBL document CHEMBL5257019, “An Overview of Severe Acute Respiratory Syndrome-Coronavirus (SARS-CoV) 3CL Protease Inhibitors: Peptidomimetics and Small Molecule Chemotherapy” (J Med Chem, 2016).

Test: Inhibition of SARS-CoV-2 3CL protease Q189A mutant by FRET assay
Parameters: species or system Severe acute respiratory syndrome coronavirus 2

Work on O=c1c(O[C@@H]2OC(O)[C@@H](O)[C@H](O)[C@@H]2O)c(-c2ccc(O)c(O)c2)oc2cc(O)cc(O)c12 (stereo partly specified) yielded an IC50 of 24.1 µM.
